Patent US12110295B2, “WD40 repeat domain protein 5 (WDR5) degradation/disruption compounds and methods of use” (Icahn School of Medicine at Mount Sinai, priority 2018, dated 2024)

What follows are molecules tested against WDR5 (Homo sapiens, UniProt P61964) (assay: Screening of putative WDR5 degraders by Western blot in MV4;11 and/or MIAPACA2 cells). Conditions: summary of screening, FIGS. 6-10.
Type: cell-based
Parameters: After WDR5 degrader treatment, cells were collected and lysed; endogenous in cells; host or cells: MV4;11 and/or MIAPACA2
Method in brief: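 MV4;11 (1×10^6/well) or MIAPACA2 (1×10^5/well) cells treated 18 h with compound at paired doses between 0.1 and 10 μM, DMSO as control. Total lysates immunoblotted for WDR5 with vinculin, tubulin or GAPDH loading controls; fluorescent secondary detection.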

SMILES	effective degradation of WDR5 in MV4;11 and/or MIAPACA2 cells
Cc1ncsc1-c1ccc(CNC(=O)[C@@H]2C[C@@H](O)CN2C(=O)[C@@H](NC(=O)CCCCCCC(=O)N2CCN(Cc3cnc(N4CC=C(c5cc(NC(=O)c6c[nH]c(=O)cc6C(F)(F)F)c(N6C[C@@H](C)N(C)[C@@H](C)C6)cc5F)CC4)nc3)CC2)C(C)(C)C)cc1 [XF078-145, N-(4-fluoro-5-(1-(5-((4-(8-(((S)-1-((2S,4R)-4-hydroxy-2-((4-(4-methylthiazol-5-yl)benzyl)carbamoyl)pyrrolidin-1-yl)-3,3-dimethyl-1-oxobutan-2-yl)amino)-8-oxooctanoyl)piperazin-1-yl)methyl)pyrimidin-2-yl)-1,2,3,6-tetrahydropyridin-4-yl)-2-((3S,5R)-3,4,5-trimethylpiperazin-1-yl)phenyl)-6-oxo-4-(trifluoromethyl)-1,6-dihydropyridine-3-carboxamide]	able to effectively degrade WDR5
Cc1ncsc1-c1ccc(CNC(=O)[C@@H]2C[C@@H](O)CN2C(=O)[C@@H](NC(=O)CCCCCCCCC(=O)N2CCN(Cc3cnc(N4CC=C(c5cc(NC(=O)c6c[nH]c(=O)cc6C(F)(F)F)c(N6C[C@@H](C)N(C)[C@@H](C)C6)cc5F)CC4)nc3)CC2)C(C)(C)C)cc1 [XF078-147, N-(4-fluoro-5-(1-(5-((4-(10-(((S)-1-((2S,4R)-4-hydroxy-2-((4-(4-methylthiazol-5-yl)benzyl)carbamoyl)pyrrolidin-1-yl)-3,3-dimethyl-1-oxobutan-2-yl)amino)-10-oxodecanoyl)piperazin-1-yl)methyl)pyrimidin-2-yl)-1,2,3,6-tetrahydropyridin-4-yl)-2-((3S,5R)-3,4,5-trimethylpiperazin-1-yl)phenyl)-6-oxo-4-(trifluoromethyl)-1,6-dihydropyridine-3-carboxamide]	able to effectively degrade WDR5
C[C@@H]1CN(c2cc(F)c(C3=CCN(c4ncc(CN5CCN(C(=O)CCOCCOCCNc6cccc7c6C(=O)N(C6CCC(=O)NC6=O)C7=O)CC5)cn4)CC3)cc2NC(=O)c2c[nH]c(=O)cc2C(F)(F)F)C[C@H](C)N1C (stereo partly drawn) [XF078-157, N-(5-(1-(5-((4-(3-(2-(2-((2-(2,6-dioxopiperidin-3-yl)-1,3-dioxoisoindolin-4-yl)amino)ethoxy)ethoxy)propanoyl)piperazin-1-yl)methyl)pyrimidin-2-yl)-1,2,3,6-tetrahydropyridin-4-yl)-4-fluoro-2-((3S,5R)-3,4,5-trimethylpiperazin-1-yl)phenyl)-6-oxo-4-(trifluoromethyl)-1,6-dihydropyridine-3-carboxamide]	able to effectively degrade WDR5
C[C@@H]1CN(c2cc(F)c(C3=CCN(c4ncc(CN5CCN(C(=O)CCOCCOCCOCCNc6cccc7c6C(=O)N(C6CCC(=O)NC6=O)C7=O)CC5)cn4)CC3)cc2NC(=O)c2c[nH]c(=O)cc2C(F)(F)F)C[C@H](C)N1C (stereo partly drawn) [XF078-158, N-(5-(1-(5-((4-(3-(2-(2-(2-((2-(2,6-dioxopiperidin-3-yl)-1,3-dioxoisoindolin-4-yl)amino)ethoxy)ethoxy)ethoxy)propanoyl)piperazin-1-yl)methyl)pyrimidin-2-yl)-1,2,3,6-tetrahydropyridin-4-yl)-4-fluoro-2-((3S,5R)-3,4,5-trimethylpiperazin-1-yl)phenyl)-6-oxo-4-(trifluoromethyl)-1,6-dihydropyridine-3-carboxamide]	able to effectively degrade WDR5

Now from value to molecule:

effective degradation of WDR5 in MV4;11 and/or MIAPACA2 cells	SMILES
able to effectively degrade WDR5	Cc1ncsc1-c1ccc(CNC(=O)[C@@H]2C[C@@H](O)CN2C(=O)[C@@H](NC(=O)CCCCCCCC(=O)N2CCN(Cc3cnc(N4CC=C(c5cc(NC(=O)c6c[nH]c(=O)cc6C(F)(F)F)c(N6C[C@@H](C)N(C)[C@@H](C)C6)cc5F)CC4)nc3)CC2)C(C)(C)C)cc1 [XF078-146, N-(4-fluoro-5-(1-(5-((4-(9-(((S)-1-((2S,4R)-4-hydroxy-2-((4-(4-methylthiazol-5-yl)benzyl)carbamoyl)pyrrolidin-1-yl)-3,3-dimethyl-1-oxobutan-2-yl)amino)-9-oxononanoyl)piperazin-1-yl)methyl)pyrimidin-2-yl)-1,2,3,6-tetrahydropyridin-4-yl)-2-((3S,5R)-3,4,5-trimethylpiperazin-1-yl)phenyl)-6-oxo-4-(trifluoromethyl)-1,6-dihydropyridine-3-carboxamide]
able to effectively degrade WDR5	Cc1ncsc1-c1ccc(CNC(=O)[C@@H]2C[C@@H](O)CN2C(=O)[C@@H](NC(=O)CCCCCCCCCC(=O)N2CCN(Cc3cnc(N4CC=C(c5cc(NC(=O)c6c[nH]c(=O)cc6C(F)(F)F)c(N6C[C@@H](C)N(C)[C@@H](C)C6)cc5F)CC4)nc3)CC2)C(C)(C)C)cc1 [XF078-148, N-(4-fluoro-5-(1-(5-((4-(11-(((S)-1-((2S,4R)-4-hydroxy-2-((4-(4-methylthiazol-5-yl)benzyl)carbamoyl)pyrrolidin-1-yl)-3,3-dimethyl-1-oxobutan-2-yl)amino)-11-oxoundecanoyl)piperazin-1-yl)methyl)pyrimidin-2-yl)-1,2,3,6-tetrahydropyridin-4-yl)-2-((3S,5R)-3,4,5-trimethylpiperazin-1-yl)phenyl)-6-oxo-4-(trifluoromethyl)-1,6-dihydropyridine-3-carboxamide]
able to effectively degrade WDR5	C[C@@H]1CN(c2cc(F)c(C3=CCN(c4ncc(CN5CCN(C(=O)CNc6cccc7c6C(=O)N(C6CCC(=O)NC6=O)C7=O)CC5)cn4)CC3)cc2NC(=O)c2c[nH]c(=O)cc2C(F)(F)F)C[C@H](C)N1C (stereo partly drawn) [XF078-149, N-(5-(1-(5-((4-((2-(2,6-dioxopiperidin-3-yl)-1,3-dioxoisoindolin-4-yl)glycyl)piperazin-1-yl)methyl)pyrimidin-2-yl)-1,2,3,6-tetrahydropyridin-4-yl)-4-fluoro-2-((3S,5R)-3,4,5-trimethylpiperazin-1-yl)phenyl)-6-oxo-4-(trifluoromethyl)-1,6-dihydropyridine-3-carboxamide]
able to effectively degrade WDR5	C[C@@H]1CN(c2cc(F)c(C3=CCN(c4ncc(CN5CCN(C(=O)CCNc6cccc7c6C(=O)N(C6CCC(=O)NC6=O)C7=O)CC5)cn4)CC3)cc2NC(=O)c2c[nH]c(=O)cc2C(F)(F)F)C[C@H](C)N1C (stereo partly drawn) [XF078-150, N-(5-(1-(5-((4-(3-((2-(2,6-dioxopiperidin-3-yl)-1,3-dioxoisoindolin-4-yl)amino)propanoyl)piperazin-1-yl)methyl)pyrimidin-2-yl)-1,2,3,6-tetrahydropyridin-4-yl)-4-fluoro-2-((3S,5R)-3,4,5-trimethylpiperazin-1-yl)phenyl)-6-oxo-4-(trifluoromethyl)-1,6-dihydropyridine-3-carboxamide]
able to effectively degrade WDR5	C[C@@H]1CN(c2cc(F)c(C3=CCN(c4ncc(CN5CCN(C(=O)CCOCCOCCOCCOCCNc6cccc7c6C(=O)N(C6CCC(=O)NC6=O)C7=O)CC5)cn4)CC3)cc2NC(=O)c2c[nH]c(=O)cc2C(F)(F)F)C[C@H](C)N1C (stereo partly drawn) [XF078-159, N-(5-(1-(5-((4-(1-((2-(2,6-dioxopiperidin-3-yl)-1,3-dioxoisoindolin-4-yl)amino)-3,6,9,12-tetraoxapentadecan-15-oyl)piperazin-1-yl)methyl)pyrimidin-2-yl)-1,2,3,6-tetrahydropyridin-4-yl)-4-fluoro-2-((3S,5R)-3,4,5-trimethylpiperazin-1-yl)phenyl)-6-oxo-4-(trifluoromethyl)-1,6-dihydropyridine-3-carboxamide]
